The nature of series [1]: Metabolic stability in human hepatic microsome. Format: in vitro ADME. The conditions noted are these: microsomes, pH 7.4; human hepatic microsome, NADPH(+); read-out: CL NADPH(+).
Series [2] in a line: PAMPA (parallel artificial membrane permeability assay). Format: in vitro ADME. Conditions: PAMPA; membrane permeation rate (Pe); 50 mM MOPSO buffer pH 6.5 with 5.0% glycocholic acid, 37° C., 18 hours; read-out: iPAMPA Pe. The essentials:
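Artificial membrane was 10% (w/v) egg lecithin plus 0.5% (w/v) cholesterol in dodecane on a PVDF filter. A 10 mM DMSO stock was added at 0.5% (v/v) to donor buffer (50 mM MOPSO, pH 6.5, 5.0% glycocholic acid). After 18 h at 37 °C, LC/MS or LC/UV gave donor and acceptor levels for Pe.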
In general terms: PAMPA measures passive passage across an artificial lipid membrane.

Structures are written as SMILES. Starred links: 1 amine or outer side, 2 acyl side, 3 side chain; linkers in the order of their positions; H or OH if unused. Positions of bridges follow the written chain, without caps; N, C: chain ends. Non-standard residues stand in square brackets, D forms with d. Residues, ends and D or L forms follow the SMILES beside them. *: point of attachment. NMeF = CN[C@@H](Cc1ccccc1)C(=O)O; NMeβAla = CN(CCC(=O)[*:2])[*:1]; NMeL = CN[C@@H](CC(C)C)C(=O)O; NMeV = CN[C@H](C(=O)O)C(C)C; NMeA = CN[C@@H](C)C(=O)O; Piperidide = C1CCN(*)CC1; dNMeA = CN[C@H](C)C(=O)O; Sar = CNCC(=O)O; tBu = CC(C)(C)*

In the case of `CC(C)C[C@H]1C(=O)N(C)[C@@H](Cc2ccccc2)C(=O)N[C@@H]([C@@H](C)O)C(=O)N(C)[C@@H](C)C(=O)N(C)[C@@H](CC(C)C)C(=O)N(C)[C@@H](C)C(=O)N[C@H](C(=O)N2CCCCC2)CC(=O)N(C)CCC(=O)N(C)[C@@H](C)C(=O)N[C@@H](C)C(=O)N(C)[C@@H](C(C)C)C(=O)N1C` [DP-414] ([NMeβAla][NMeA]A[NMeV][NMeL][NMeF]T[NMeA][NMeL][NMeA]D-Piperidide; lactam N-11), in series [1], the microsomal CLint at 1 uM turned out to be 20 µL/min/mg. Besides, the Papp at 18 hours, 50 µM in series [2] turned out to be 4.4 ×10⁻⁶ cm/s.
Take `CC[C@H](C)[C@@H]1NC(=O)[C@@H](C)NC(=O)C[C@@H](C(=O)N2CCCCC2)NC(=O)[C@H](Cc2ccccc2)NC(=O)[C@H]([C@@H](C)O)NC(=O)[C@H](C)NC(=O)[C@H](Cc2ccccc2)NC(=O)[C@H](CC(C)C)NC(=O)[C@H](CC(C)C)N(C)C(=O)[C@H](Cc2ccccc2)NC(=O)[C@H](CC(C)C)NC1=O` [DP-415] ([dA]ILF[NMeL]LFATFD-Piperidide; lactam N-11): the microsomal CLint at 1 uM in series [1] came out at 118 µL/min/mg. The Papp at 18 hours, 50 µM in series [2] worked out at 2.9 ×10⁻⁶ cm/s.
The corresponding values for `CC[C@H](C)[C@@H]1NC(=O)[C@H](CC(C)C)NC(=O)[C@H](C(C)C)NC(=O)[C@H](CC(C)C)N(C)C(=O)[C@H](CC(C)C)NC(=O)[C@H](Cc2ccccc2)NC(=O)[C@H]([C@@H](C)O)NC(=O)[C@H](CC(C)C)NC(=O)[C@H](Cc2ccccc2)NC(=O)[C@@H](C)N(C)C(=O)C[C@@H](C(=O)N2CCCCC2)NC1=O` [DP-416] ([dNMeA]FLTFL[NMeL]VLID-Piperidide; lactam N-11) are 20 µL/min/mg and 0.23 ×10⁻⁶ cm/s.
With `CC[C@H](C)[C@@H]1NC(=O)[C@H](C(C)C)N(C)C(=O)[C@H](C)N(C)C(=O)[C@H]([C@@H](C)O)NC(=O)[C@H](CC(C)C)N(C)C(=O)[C@H](Cc2ccccc2)NC(=O)[C@H](CC(C)C)N(C)C(=O)[C@@H](C)N(C)C(=O)C[C@@H](C(=O)N2CCCCC2)NC(=O)[C@H](C)NC(=O)[C@H](CC(C)C)N(C)C1=O` [DP-417] ([dNMeA][NMeL]F[NMeL]T[NMeA][NMeV]I[NMeL]AD-Piperidide; lactam N-11), in series [1], the microsomal CLint at 1 uM is 113 µL/min/mg. Also, the Papp at 18 hours, 50 µM in series [2] amounted to 43 ×10⁻⁶ cm/s.
As to `CC(C)C[C@@H]1NC(=O)[C@H](CC(C)C)N(C)C(=O)[C@H](C)NC(=O)[C@H](C(C)C)N(C)C(=O)CN(C)C(=O)[C@H](Cc2ccccc2)NC(=O)[C@H]([C@@H](C)O)NC(=O)[C@H](CC(C)C)N(C)C(=O)[C@@H](C)N(C)C(=O)C[C@@H](C(=O)N2CCCCC2)NC(=O)[C@H](CC(C)C)N(C)C1=O` [DP-418] ([dNMeA][NMeL]TF[Sar][NMeV]A[NMeL]L[NMeL]D-Piperidide; lactam N-11), the microsomal CLint at 1 uM in series [1] was found to be 71 µL/min/mg. For the same molecule, the Papp at 18 hours, 50 µM in series [2] was found to be 28 ×10⁻⁶ cm/s.
The corresponding values for `CC(C)C[C@H]1C(=O)N[C@@H]([C@@H](C)O)C(=O)N(C)[C@@H](C)C(=O)N(C)[C@@H](Cc2ccccc2)C(=O)N(C)CC(=O)N[C@@H](C)C(=O)N(C)[C@@H](Cc2ccccc2)C(=O)N(C)[C@@H](CC(C)C)C(=O)N[C@H](C(=O)N2CCCCC2)CC(=O)N(C)[C@H](C)C(=O)N(C)[C@@H](C)C(=O)N1C` [DP-419] ([dNMeA][NMeA][NMeL]T[NMeA][NMeF][Sar]A[NMeF][NMeL]D-Piperidide; lactam N-11) are 17 µL/min/mg and 6.7 ×10⁻⁶ cm/s.
Take `CC(C)C[C@@H]1NC(=O)CN(C)C(=O)[C@H](CC(C)C)NC(=O)[C@H](C)NC(=O)[C@H](CC(C)C)NC(=O)[C@H](CC(C)C)NC(=O)[C@H](C)N(C)C(=O)C[C@@H](C(=O)N2CCCCC2)NC(=O)[C@H]([C@@H](C)O)NC(=O)[C@H](Cc2ccccc2)NC(=O)[C@H](CC(C)C)NC1=O` [DP-420] ([NMeA]LLAL[Sar]LLFTD-Piperidide; lactam N-11): in series [1], the microsomal CLint at 1 uM is 69 µL/min/mg. Besides, in series [2], the Papp at 18 hours, 50 µM was 10 ×10⁻⁶ cm/s.
As for `CC(C)C[C@@H]1NC(=O)[C@H](C)NC(=O)[C@H]([C@@H](C)O)NC(=O)[C@H](C)N(C)C(=O)C[C@@H](C(=O)N2CCCCC2)NC(=O)[C@H](CC(C)C)N(C)C(=O)[C@H](CC(C)C)NC(=O)[C@H](C(C)C)N(C)C(=O)[C@H](CC(C)C)NC(=O)[C@H](Cc2ccccc2)NC(=O)CN(C)C1=O` [DP-421] ([NMeA]TAL[Sar]FL[NMeV]L[NMeL]D-Piperidide; lactam N-11), the microsomal CLint at 1 uM in series [1] is 171 µL/min/mg. In series [2], the Papp at 18 hours, 50 µM turned out to be 29 ×10⁻⁶ cm/s.
For `CC(C)C[C@H]1C(=O)N[C@H](C(=O)N2CCCCC2)CC(=O)N(C)[C@@H](C)C(=O)N(C)[C@@H](Cc2ccccc2)C(=O)N(C)[C@@H](C)C(=O)N[C@@H]([C@@H](C)O)C(=O)N(C)[C@@H](C)C(=O)N[C@@H](Cc2ccccc2)C(=O)N(C)[C@@H](C)C(=O)N[C@@H](C)C(=O)N(C)[C@@H](C)C(=O)N1C` [DP-422] ([NMeA][NMeF][NMeA]T[NMeA]F[NMeA]A[NMeA][NMeL]D-Piperidide; lactam N-11), in series [1], the microsomal CLint at 1 uM amounted to 26 µL/min/mg. Besides, in series [2], the Papp at 18 hours, 50 µM came to 3.8 ×10⁻⁶ cm/s.
`CC[C@H](C)[C@@H]1NC(=O)[C@H](Cc2ccccc2)NC(=O)[C@H]([C@@H](C)O)NC(=O)CCN(C)C(=O)C[C@@H](C(=O)N2CCCCC2)NC(=O)[C@H](Cc2ccccc2)NC(=O)[C@H](Cc2ccccc2)NC(=O)CNC(=O)[C@H](CC(C)C)N(C)C(=O)[C@H](CC(C)C)NC1=O` [DP-423] ([NMeβAla]TFIL[NMeL]GFFD-Piperidide; lactam N-10): the microsomal CLint at 1 uM in series [1] was 110 µL/min/mg. Moreover, the Papp at 18 hours, 50 µM in series [2] is 15 ×10⁻⁶ cm/s.
For `CC[C@H](C)[C@@H]1NC(=O)[C@H](Cc2ccccc2)NC(=O)[C@H]([C@@H](C)O)NC(=O)[C@H](CC(C)C)NC(=O)CCN(C)C(=O)C[C@@H](C(=O)N2CCCCC2)NC(=O)[C@H](CC(C)C)NC(=O)[C@H](Cc2ccccc2)N(C)C(=O)[C@H](Cc2ccccc2)NC(=O)[C@H](CC(C)C)NC1=O` [DP-424] ([NMeβAla]LTFILF[NMeF]LD-Piperidide; lactam N-10), in that order: 135 µL/min/mg and 46 ×10⁻⁶ cm/s.
Regarding `CC[C@H](C)[C@@H]1NC(=O)CCN(C)C(=O)C[C@@H](C(=O)N2CCCCC2)NC(=O)[C@H](Cc2ccccc2)N(C)C(=O)[C@H](CC(C)C)NC(=O)[C@H](CC(C)C)N(C)C(=O)[C@H](CC(C)C)NC(=O)[C@H]([C@@H](C)O)NC(=O)[C@H](Cc2ccccc2)NC(=O)[C@H](C(C)C)N(C)C1=O` [DP-425] ([NMeβAla]I[NMeV]FTL[NMeL]L[NMeF]D-Piperidide; lactam N-10), the microsomal CLint at 1 uM in series [1] was 150 µL/min/mg. The Papp at 18 hours, 50 µM in series [2] is 27 ×10⁻⁶ cm/s.
Take `CC(C)C[C@H]1C(=O)N[C@@H](Cc2ccccc2)C(=O)N[C@@H](COC(C)(C)C)C(=O)N(C)[C@@H](CC(C)C)C(=O)N(C)[C@@H](CC(C)C)C(=O)N[C@@H]([C@@H](C)O)C(=O)N[C@H](C(=O)N2CCCCC2)CC(=O)N(C)CCC(=O)N(C)[C@@H](Cc2ccccc2)C(=O)NCC(=O)N1C` [DP-426] ([NMeβAla][NMeF]G[NMeL]FS(tBu)[NMeL][NMeL]TD-Piperidide; lactam N-10): the microsomal CLint at 1 uM in series [1] worked out at 546 µL/min/mg. Also, the Papp at 18 hours, 50 µM in series [2] is 36 ×10⁻⁶ cm/s.
For the molecule `CC[C@H](C)[C@@H]1NC(=O)[C@H](Cc2ccccc2)N(C)C(=O)[C@H](CC(C)C)N(C)C(=O)[C@H](Cc2ccccc2)NC(=O)[C@H](C)N(C)C(=O)[C@H]([C@@H](C)O)NC(=O)CCN(C)C(=O)C[C@@H](C(=O)N2CCCCC2)NC(=O)[C@H](CC(C)C)N(C)C(=O)[C@H](C(C)C)N(C)C1=O` [DP-427] ([NMeβAla]T[NMeA]F[NMeL][NMeF]I[NMeV][NMeL]D-Piperidide; lactam N-10), the microsomal CLint at 1 uM in series [1] was 141 µL/min/mg. The Papp at 18 hours, 50 µM in series [2] came out at 37 ×10⁻⁶ cm/s.
Take `CC(C)C[C@H]1C(=O)N(C)[C@@H](CC(C)C)C(=O)N(C)[C@@H](CC(C)C)C(=O)N[C@H](C(=O)N2CCCCC2)CC(=O)N(C)CCC(=O)N(C)[C@@H](Cc2ccccc2)C(=O)N(C)[C@@H](CC(C)C)C(=O)N[C@@H]([C@@H](C)O)C(=O)N(C)[C@@H](C)C(=O)NCC(=O)N1C` [DP-428] ([NMeβAla][NMeF][NMeL]T[NMeA]G[NMeL][NMeL][NMeL]D-Piperidide; lactam N-10): the microsomal CLint at 1 uM in series [1] amounted to 77 µL/min/mg. In addition, the Papp at 18 hours, 50 µM in series [2] is 26 ×10⁻⁶ cm/s.
In the case of `CC[C@H](C)[C@@H]1NC(=O)[C@H](CC(C)C)N(C)C(=O)[C@H](CC(C)C)N(C)C(=O)CCN(C)C(=O)C[C@@H](C(=O)N2CCCCC2)NC(=O)[C@H](CC(C)C)N(C)C(=O)[C@H](CC(C)C)N(C)C(=O)[C@H](Cc2ccccc2)N(C)C(=O)[C@H]([C@@H](C)O)NC(=O)[C@H](Cc2ccccc2)N(C)C1=O` [DP-429] ([NMeβAla][NMeL][NMeL]I[NMeF]T[NMeF][NMeL][NMeL]D-Piperidide; lactam N-10), the microsomal CLint at 1 uM in series [1] is 115 µL/min/mg. The Papp at 18 hours, 50 µM in series [2] was 15 ×10⁻⁶ cm/s.
The corresponding values for `CC[C@H](C)[C@@H]1NC(=O)[C@H](CC(C)C)NC(=O)[C@H](Cc2ccccc2)NC(=O)CN(C)C(=O)[C@H](CC(C)C)NC(=O)[C@H](Cc2ccccc2)NC(=O)[C@@H](C)NC(=O)C[C@@H](C(=O)N2CCCCC2)NC(=O)[C@H]([C@@H](C)O)NC(=O)[C@H](Cc2ccccc2)NC1=O` [DP-430] ([dA]FL[Sar]FLIFTD-Piperidide; lactam N-10) are 96 µL/min/mg and 32 ×10⁻⁶ cm/s.
Take `CC[C@H](C)[C@@H]1NC(=O)[C@H](CC(C)C)N(C)C(=O)[C@H](CC(C)C)NC(=O)[C@H](Cc2ccccc2)NC(=O)[C@H]([C@@H](C)O)NC(=O)[C@H](Cc2ccccc2)NC(=O)[C@@H](C)N(C)C(=O)C[C@@H](C(=O)N2CCCCC2)NC(=O)CNC(=O)[C@H](Cc2ccccc2)NC1=O` [DP-431] ([dNMeA]FTFL[NMeL]IFGD-Piperidide; lactam N-10): the microsomal CLint at 1 uM in series [1] was determined as 239 µL/min/mg. Also, in series [2], the Papp at 18 hours, 50 µM was 34 ×10⁻⁶ cm/s.

Values taken from US9409952B2, “Peptide-compound cyclization method” (Chugai Seiyaku Kabushiki Kaisha, priority 2011, dated 2016).
